System: Wistar rats, MIA osteoarthritis model
Experiment: Monosodium iodoacetate induced osteoarthritis in rats
Assay type: in vivo, rat
Description: Monosodium iodoacetate (MIA) osteoarthritis model was performed at Pharmenterprises, Russia according to the known procedure[32] and approved by Ethics Committee of Pharmenterprises. Male 10 week old Wistar rats were divided into eight groups: negative control (#1), positive control (#2) and six treatment groups (#3–8), ten rats in each group. Group #1 was left intact while rats in groups #2–8 were anesthetized on the day 0 with intraperitoneal injection of Zoletil and Xylazine mixture and given a single intra-articular injection of MIA through the infrapatellar ligament of the right knee. Rats were treated as follows: (#1, #2) 0.5% solution of methylcellulose in PBS (pH = 3) as vehicle control, (#3, #5) 100 mg/kg MT-SYK-03, (#4, #6) 500 mg/kg MT-SYK-03, (#7) 50 mg/kg nalgesin and (#8) 0.1 mg/kg zoledronic acid. Rats in groups #1–4 received treatment intragastrically QD, 25 and 1 h before the MIA injection, and then daily until the end of the study on the day 28. Rats in groups #5–6 received treatment intragastrically QD from the day 7 until the end of the study. Rats in group #7 were treated QD starting on the day 14 and until the end of the study. Finally, rats in group #8 were treated subcutaneously immediately after the MIA injection and then every third day until the study end. Disease progression was monitored by measuring mechanical hyperalgesia, mechanical allodynia and grip strength of hind paws on the days 14, 21, and 28, just before the treatment, and 1, 3, 6 h after it.

[1] = MT-SYK-03 100 mg/kg, 7–28 days QD, 14 day, 1 hour after admin.
[2] = MT-SYK-03 100 mg/kg, 7–28 days QD, 14 day, 3 hours after admin.
[3] = MT-SYK-03 100 mg/kg, 7–28 days QD, 21 day, 1 hour after admin.
[4] = MT-SYK-03 100 mg/kg, 7–28 days QD, 21 day, 3 hours after admin.
[5] = MT-SYK-03 100 mg/kg, 7–28 days QD, 28 day, 1 hour after admin.
[6] = MT-SYK-03 100 mg/kg, 7–28 days QD, 28 day, 3 hours after admin.
[7] = MT-SYK-03 100 mg/kg, −1–28 days QD, 14 day, 1 hour after admin.
[8] = MT-SYK-03 100 mg/kg, −1–28 days QD, 14 day, 3 hours after admin.
[9] = MT-SYK-03 100 mg/kg, −1–28 days QD, 21 day, 1 hour after admin.
[10] = MT-SYK-03 100 mg/kg, −1–28 days QD, 21 day, 3 hours after admin.
[11] = MT-SYK-03 100 mg/kg, −1–28 days QD, 28 day, 1 hour after admin.
[12] = MT-SYK-03 100 mg/kg, −1–28 days QD, 28 day, 3 hours after admin.
[13] = MT-SYK-03 500 mg/kg, 7–28 days QD, 14 day, 1 hour after admin.
[14] = MT-SYK-03 500 mg/kg, 7–28 days QD, 14 day, 3 hours after admin.
[15] = MT-SYK-03 500 mg/kg, 7–28 days QD, 21 day, 1 hour after admin.
[16] = MT-SYK-03 500 mg/kg, 7–28 days QD, 21 day, 3 hours after admin.
[17] = MT-SYK-03 500 mg/kg, 7–28 days QD, 28 day, 1 hour after admin.
[18] = MT-SYK-03 500 mg/kg, 7–28 days QD, 28 day, 3 hours after admin.
[19] = MT-SYK-03 500 mg/kg, −1–28 days QD, 14 day, 1 hour after admin.
[20] = MT-SYK-03 500 mg/kg, −1–28 days QD, 14 day, 3 hours after admin.
[21] = MT-SYK-03 500 mg/kg, −1–28 days QD, 21 day, 1 hour after admin.
[22] = MT-SYK-03 500 mg/kg, −1–28 days QD, 21 day, 3 hours after admin.
[23] = MT-SYK-03 500 mg/kg, −1–28 days QD, 28 day, 1 hour after admin.
[24] = MT-SYK-03 500 mg/kg, −1–28 days QD, 28 day, 3 hours after admin.

## COc1cc(Nc2ncnc(Nc3cc4c(cn3)NC(=O)C(C)(C)O4)n2)cc(OC)c1OC [MT-SYK-03]
[1]
  hind paws grip strength: 70.1 ± 10.8 % from the initial one
  mechanical allodynia pain threshold: 70.2±7.7 % from the initial one
  mechanical hyperalgesia: 51.9 ± 4.1 & % from the initial one
[2]
  hind paws grip strength: 58.9 ± 7.8 & % from the initial one
  mechanical allodynia pain threshold: 78.7±10.6 % from the initial one
  mechanical hyperalgesia: 50.6 ± 5.6 & % from the initial one
[3]
  hind paws grip strength: 76.3 ± 6.2 & % from the initial one
  mechanical allodynia pain threshold: 75.3±15.4 % from the initial one
  mechanical hyperalgesia: 85.1 ± 5 % from the initial one
[4]
  hind paws grip strength: 62.56 ± 7.58 % from the initial one
  mechanical allodynia pain threshold: 73.1±7.9 % from the initial one
  mechanical hyperalgesia: 73.5 ± 6.9 & % from the initial one
[5]
  hind paws grip strength: 74.4 ± 13.0 % from the initial one
  mechanical allodynia pain threshold: 61.7±5.8 % from the initial one
  mechanical hyperalgesia: 67.7 ± 9.8 & % from the initial one
[6]
  hind paws grip strength: 58.1 ± 10.0 % from the initial one
  mechanical allodynia pain threshold: 78.3±8 % from the initial one
  mechanical hyperalgesia: 71.24 ± 7.99 % from the initial one
[7]
  hind paws grip strength: 56.3 ± 5.2 & % from the initial one
  mechanical allodynia pain threshold: 136.3±22.5 & % from the initial one
  mechanical hyperalgesia: 73.5 ± 10.5 & % from the initial one
[8]
  hind paws grip strength: 58.7 ± 8.2 & % from the initial one
  mechanical allodynia pain threshold: 136.7±29.2 & % from the initial one
  mechanical hyperalgesia: 63.9 ± 7.5 & % from the initial one
[9]
  hind paws grip strength: 76.5 ± 4.5 & % from the initial one
  mechanical allodynia pain threshold: 107.7±12.8 & % from the initial one
  mechanical hyperalgesia: 74.4 ± 3.3 &# % from the initial one
[10]
  hind paws grip strength: 72.69 ± 9.18 % from the initial one
  mechanical allodynia pain threshold: 95.5±4.7 & % from the initial one
  mechanical hyperalgesia: 80.5 ± 10.3 % from the initial one
[11]
  hind paws grip strength: 90.5 ± 14.0 % from the initial one
  mechanical allodynia pain threshold: 135.8±27.6 & % from the initial one
  mechanical hyperalgesia: 65.1 ± 7.4 & % from the initial one
[12]
  hind paws grip strength: 88.6 ± 18.5 % from the initial one
  mechanical allodynia pain threshold: 110.3±16.3 % from the initial one
  mechanical hyperalgesia: 67.38 ± 9.74 & % from the initial one
[13]
  hind paws grip strength: 68.2 ± 11.3 % from the initial one
  mechanical allodynia pain threshold: 75.7±3.6 % from the initial one
  mechanical hyperalgesia: 51.1 ± 5.4 & % from the initial one
[14]
  hind paws grip strength: 78.6 ± 12.1 % from the initial one
  mechanical allodynia pain threshold: 82.7±12.8 % from the initial one
  mechanical hyperalgesia: 77.5 ± 6.9 & % from the initial one
[15]
  hind paws grip strength: 67.7 ± 7.9 & % from the initial one
  mechanical allodynia pain threshold: 74.5±13.9 % from the initial one
  mechanical hyperalgesia: 56 ± 7.2 & % from the initial one
[16]
  hind paws grip strength: 68.23 ± 6.84 % from the initial one
  mechanical allodynia pain threshold: 78.9±6.8 % from the initial one
  mechanical hyperalgesia: 58.5 ± 7.1 & % from the initial one
[17]
  hind paws grip strength: 82.8 ± 9.5 % from the initial one
  mechanical allodynia pain threshold: 198.4±40.1 & % from the initial one
  mechanical hyperalgesia: 75 ± 6.1 & % from the initial one
[18]
  hind paws grip strength: 79.8 ± 4.3 % from the initial one
  mechanical allodynia pain threshold: 161.1±30.5 & % from the initial one
  mechanical hyperalgesia: 78.02 ± 9.37 % from the initial one
[19]
  hind paws grip strength: 62.8 ± 9.9 % from the initial one
  mechanical allodynia pain threshold: 113.9±9.7 & % from the initial one
  mechanical hyperalgesia: 53.8 ± 4.4 & % from the initial one
[20]
  hind paws grip strength: 70.3 ± 7.0 & % from the initial one
  mechanical allodynia pain threshold: 111.1±17.7 & % from the initial one
  mechanical hyperalgesia: 52.5 ± 3.3 & % from the initial one
[21]
  hind paws grip strength: 89.6 ± 8.7 % from the initial one
  mechanical allodynia pain threshold: 105.8±13 & % from the initial one
  mechanical hyperalgesia: 75.4 ± 6.4 % from the initial one
[22]
  hind paws grip strength: 76.56 ± 4.83 % from the initial one
  mechanical allodynia pain threshold: 98.1±5.7 & % from the initial one
  mechanical hyperalgesia: 64.7 ± 4.3 & % from the initial one
[23]
  hind paws grip strength: 86.3 ± 8.3 % from the initial one
  mechanical allodynia pain threshold: 106.7±12 & % from the initial one
  mechanical hyperalgesia: 53.5 ± 3.8 & % from the initial one
[24]
  hind paws grip strength: 82.3 ± 12.7 % from the initial one
  mechanical allodynia pain threshold: 99.2±5.5 & % from the initial one
  mechanical hyperalgesia: 61.04 ± 1.81 & % from the initial one
Rat MIA, days 14, 21, 28
  hind paws grip strength: trend toward restoration of hind paws grip strength
Rat MIA, prophylactic administration, 100 and 500 mg/kg
  Mechanical hyperalgesia pain threshold: statistically significant increase of pain thresholds for both doses from day 14
Rat MIA, prophylactic treatment regimen
  mechanical allodynia pain threshold: on day 14 pain threshold was elevated in all measurements
Rat MIA, therapeutic treatment regimen
  Mechanical hyperalgesia pain threshold: statistically significant improvement appeared only on day 28 for higher dose
Rat MIA, treatment regimen
  mechanical allodynia pain threshold: statistically significant on day 28 and only in the higher dose

Reference: paper PMC8632988, “Inhibition of SYK and cSrc kinases can protect bone and cartilage in preclinical models of osteoarthritis and rheumatoid arthritis” (Scientific Reports, 2021)
